Measured values reported in the NIST ThermoML archive (doi:10.1021/acs.jced.9b00752).

Test: mn = molality of the nth substance listed, in mol/kg
Details: 100 kPa, Liquid, Vibrating tube method

N[C@@H](Cc1c[nH]cn1)C(=O)O [L-histidine] + O
Details	mass density [kg/m3]
273.65 K, m1 = 0.0078	1000.36
273.65 K, m1 = 0.0176	1000.94
273.65 K, m1 = 0.0269	1001.55
273.65 K, m1 = 0.048	1002.8
273.65 K, m1 = 0.0636	1003.83
273.65 K, m1 = 0.0856	1005.09
273.65 K, m1 = 0.0982	1005.86
273.65 K, m1 = 0.115	1006.76
273.65 K, m1 = 0.1268	1007.55
273.65 K, m1 = 0.138	1008.24
273.65 K, m1 = 0.1586	1009.57
274.15 K, m1 = 0.0078	1000.39
274.15 K, m1 = 0.0176	1000.96
274.15 K, m1 = 0.0269	1001.57
274.15 K, m1 = 0.048	1002.82
274.15 K, m1 = 0.0636	1003.85
274.15 K, m1 = 0.0856	1005.11
274.15 K, m1 = 0.0982	1005.87
274.15 K, m1 = 0.115	1006.77
274.15 K, m1 = 0.1268	1007.57
274.15 K, m1 = 0.138	1008.25
274.15 K, m1 = 0.1586	1009.58
274.65 K, m1 = 0.0078	1000.41
274.65 K, m1 = 0.0176	1000.99
274.65 K, m1 = 0.0269	1001.59
274.65 K, m1 = 0.048	1002.83
274.65 K, m1 = 0.0636	1003.87
274.65 K, m1 = 0.0856	1005.12
274.65 K, m1 = 0.0982	1005.88
274.65 K, m1 = 0.115	1006.77
274.65 K, m1 = 0.1268	1007.57
274.65 K, m1 = 0.138	1008.25
274.65 K, m1 = 0.1586	1009.58
275.15 K, m1 = 0.0078	1000.43
275.15 K, m1 = 0.0176	1001
275.15 K, m1 = 0.0269	1001.61
275.15 K, m1 = 0.048	1002.85
275.15 K, m1 = 0.0636	1003.88
275.15 K, m1 = 0.0856	1005.12
275.15 K, m1 = 0.0982	1005.89
275.15 K, m1 = 0.115	1006.78
275.15 K, m1 = 0.1268	1007.57
275.15 K, m1 = 0.138	1008.25
275.15 K, m1 = 0.1586	1009.58
275.65 K, m1 = 0.0078	1000.44
275.65 K, m1 = 0.0176	1001.01
275.65 K, m1 = 0.0269	1001.62
275.65 K, m1 = 0.048	1002.86
275.65 K, m1 = 0.0636	1003.88
275.65 K, m1 = 0.0856	1005.13
275.65 K, m1 = 0.0982	1005.89
275.65 K, m1 = 0.115	1006.78
275.65 K, m1 = 0.1268	1007.57
275.65 K, m1 = 0.138	1008.25
275.65 K, m1 = 0.1586	1009.58
276.15 K, m1 = 0.0078	1000.45
276.15 K, m1 = 0.0176	1001.02
276.15 K, m1 = 0.0269	1001.62
276.15 K, m1 = 0.048	1002.86
276.15 K, m1 = 0.0636	1003.88
276.15 K, m1 = 0.0856	1005.13
276.15 K, m1 = 0.0982	1005.89
276.15 K, m1 = 0.115	1006.78
276.15 K, m1 = 0.1268	1007.57
276.15 K, m1 = 0.138	1008.25
276.15 K, m1 = 0.1586	1009.57
276.65 K, m1 = 0.0078	1000.46
276.65 K, m1 = 0.0176	1001.02
276.65 K, m1 = 0.0269	1001.62
276.65 K, m1 = 0.048	1002.86
276.65 K, m1 = 0.0636	1003.88
276.65 K, m1 = 0.0856	1005.12
276.65 K, m1 = 0.0982	1005.88
276.65 K, m1 = 0.115	1006.77
276.65 K, m1 = 0.1268	1007.56
276.65 K, m1 = 0.138	1008.23
276.65 K, m1 = 0.1586	1009.55
277.15 K, m1 = 0.0078	1000.45
277.15 K, m1 = 0.0176	1001.02
277.15 K, m1 = 0.0269	1001.62
277.15 K, m1 = 0.048	1002.85
277.15 K, m1 = 0.0636	1003.88
277.15 K, m1 = 0.0856	1005.11
277.15 K, m1 = 0.0982	1005.87
277.15 K, m1 = 0.115	1006.76
277.15 K, m1 = 0.1268	1007.54
277.15 K, m1 = 0.138	1008.22
277.15 K, m1 = 0.1586	1009.54
277.65 K, m1 = 0.0078	1000.45
277.65 K, m1 = 0.0176	1001.02
277.65 K, m1 = 0.0269	1001.62
277.65 K, m1 = 0.048	1002.85
277.65 K, m1 = 0.0636	1003.87
277.65 K, m1 = 0.0856	1005.1
277.65 K, m1 = 0.0982	1005.86
277.65 K, m1 = 0.115	1006.75
277.65 K, m1 = 0.1268	1007.53
277.65 K, m1 = 0.138	1008.2
277.65 K, m1 = 0.1586	1009.52
278.15 K, m1 = 0.0078	1000.44
278.15 K, m1 = 0.0176	1001.01
278.15 K, m1 = 0.0269	1001.61
278.15 K, m1 = 0.048	1002.84
278.15 K, m1 = 0.0636	1003.85
278.15 K, m1 = 0.0856	1005.09
278.15 K, m1 = 0.0982	1005.85
278.15 K, m1 = 0.115	1006.73
278.15 K, m1 = 0.1268	1007.51
278.15 K, m1 = 0.138	1008.18
278.15 K, m1 = 0.1586	1009.5
278.65 K, m1 = 0.0078	1000.43
278.65 K, m1 = 0.0176	1001
278.65 K, m1 = 0.0269	1001.6
278.65 K, m1 = 0.048	1002.82
278.65 K, m1 = 0.0636	1003.84
278.65 K, m1 = 0.0856	1005.07
278.65 K, m1 = 0.0982	1005.82
278.65 K, m1 = 0.115	1006.7
278.65 K, m1 = 0.1268	1007.49
278.65 K, m1 = 0.138	1008.16
278.65 K, m1 = 0.1586	1009.47
279.15 K, m1 = 0.0078	1000.42
279.15 K, m1 = 0.0176	1000.98
279.15 K, m1 = 0.0269	1001.58
279.15 K, m1 = 0.048	1002.8
279.15 K, m1 = 0.0636	1003.82
279.15 K, m1 = 0.0856	1005.05
279.15 K, m1 = 0.0982	1005.8
279.15 K, m1 = 0.115	1006.68
279.15 K, m1 = 0.1268	1007.46
279.15 K, m1 = 0.138	1008.13
279.15 K, m1 = 0.1586	1009.44
279.65 K, m1 = 0.0078	1000.4
279.65 K, m1 = 0.0176	1000.97
279.65 K, m1 = 0.0269	1001.56
279.65 K, m1 = 0.048	1002.78
279.65 K, m1 = 0.0636	1003.79
279.65 K, m1 = 0.0856	1005.02
279.65 K, m1 = 0.0982	1005.77
279.65 K, m1 = 0.115	1006.65
279.65 K, m1 = 0.1268	1007.43
279.65 K, m1 = 0.138	1008.1
279.65 K, m1 = 0.1586	1009.41
280.15 K, m1 = 0.0078	1000.38
280.15 K, m1 = 0.0176	1000.94
280.15 K, m1 = 0.0269	1001.53
280.15 K, m1 = 0.048	1002.75
280.15 K, m1 = 0.0636	1003.76
280.15 K, m1 = 0.0856	1004.99
280.15 K, m1 = 0.0982	1005.74
280.15 K, m1 = 0.115	1006.62
280.15 K, m1 = 0.1268	1007.39
280.15 K, m1 = 0.138	1008.06
280.15 K, m1 = 0.1586	1009.37
280.65 K, m1 = 0.0078	1000.36
280.65 K, m1 = 0.0176	1000.92
280.65 K, m1 = 0.0269	1001.51
280.65 K, m1 = 0.048	1002.73
280.65 K, m1 = 0.0636	1003.73
280.65 K, m1 = 0.0856	1004.96
280.65 K, m1 = 0.0982	1005.71
280.65 K, m1 = 0.115	1006.58
280.65 K, m1 = 0.1268	1007.36
280.65 K, m1 = 0.138	1008.03
280.65 K, m1 = 0.1586	1009.33
281.15 K, m1 = 0.0078	1000.33
281.15 K, m1 = 0.0176	1000.89
281.15 K, m1 = 0.0269	1001.48
281.15 K, m1 = 0.048	1002.69
281.15 K, m1 = 0.0636	1003.7
281.15 K, m1 = 0.0856	1004.92
281.15 K, m1 = 0.0982	1005.67
281.15 K, m1 = 0.115	1006.54
281.15 K, m1 = 0.1268	1007.32
281.15 K, m1 = 0.138	1007.99
281.15 K, m1 = 0.1586	1009.28
281.65 K, m1 = 0.0078	1000.29
281.65 K, m1 = 0.0176	1000.85
281.65 K, m1 = 0.0269	1001.44
281.65 K, m1 = 0.048	1002.65
281.65 K, m1 = 0.0636	1003.66
281.65 K, m1 = 0.0856	1004.88
281.65 K, m1 = 0.0982	1005.63
281.65 K, m1 = 0.115	1006.5
281.65 K, m1 = 0.1268	1007.27
281.65 K, m1 = 0.138	1007.94
281.65 K, m1 = 0.1586	1009.24
282.15 K, m1 = 0.0078	1000.26
282.15 K, m1 = 0.0176	1000.82
282.15 K, m1 = 0.0269	1001.41
282.15 K, m1 = 0.048	1002.62
282.15 K, m1 = 0.0636	1003.62
282.15 K, m1 = 0.0856	1004.84
282.15 K, m1 = 0.0982	1005.59
282.15 K, m1 = 0.115	1006.46
282.15 K, m1 = 0.1268	1007.23
282.15 K, m1 = 0.138	1007.89
282.15 K, m1 = 0.1586	1009.19
282.65 K, m1 = 0.0078	1000.22
282.65 K, m1 = 0.0176	1000.78
282.65 K, m1 = 0.0269	1001.36
282.65 K, m1 = 0.048	1002.57
282.65 K, m1 = 0.0636	1003.58
282.65 K, m1 = 0.0856	1004.79
282.65 K, m1 = 0.0982	1005.54
282.65 K, m1 = 0.115	1006.41
282.65 K, m1 = 0.1268	1007.18
282.65 K, m1 = 0.138	1007.84
282.65 K, m1 = 0.1586	1009.13
283.15 K, m1 = 0.0078	1000.18
283.15 K, m1 = 0.0176	1000.73
283.15 K, m1 = 0.0269	1001.32
283.15 K, m1 = 0.048	1002.53
283.15 K, m1 = 0.0636	1003.53
283.15 K, m1 = 0.0856	1004.74
283.15 K, m1 = 0.0982	1005.49
283.15 K, m1 = 0.115	1006.36
283.15 K, m1 = 0.1268	1007.13
283.15 K, m1 = 0.138	1007.79
283.15 K, m1 = 0.1586	1009.08
